From the kinase profiling compilation of Christmann-Franck et al. (2016)

How the values were obtained:
Experiment in all cases: Flashplate
[1] = molecular target: CHEK1 (human) (UniProt O14757)
[2] = molecular target: CLK4 (human) (UniProt Q9HAZ1)
[3] = molecular target: DCLK1 (human) (UniProt O15075)
[4] = molecular target: AKT3 (human) (UniProt Q9Y243)
[5] = molecular target: TSSK1B (human) (UniProt Q9BXA7)
[6] = molecular target: PAK1 (human) (UniProt Q13153)
[7] = molecular target: MAPKAPK5 (human) (UniProt Q8IW41)
Sequence of MAPKAPK5 (human) (Q8IW41 whole entry, looked up): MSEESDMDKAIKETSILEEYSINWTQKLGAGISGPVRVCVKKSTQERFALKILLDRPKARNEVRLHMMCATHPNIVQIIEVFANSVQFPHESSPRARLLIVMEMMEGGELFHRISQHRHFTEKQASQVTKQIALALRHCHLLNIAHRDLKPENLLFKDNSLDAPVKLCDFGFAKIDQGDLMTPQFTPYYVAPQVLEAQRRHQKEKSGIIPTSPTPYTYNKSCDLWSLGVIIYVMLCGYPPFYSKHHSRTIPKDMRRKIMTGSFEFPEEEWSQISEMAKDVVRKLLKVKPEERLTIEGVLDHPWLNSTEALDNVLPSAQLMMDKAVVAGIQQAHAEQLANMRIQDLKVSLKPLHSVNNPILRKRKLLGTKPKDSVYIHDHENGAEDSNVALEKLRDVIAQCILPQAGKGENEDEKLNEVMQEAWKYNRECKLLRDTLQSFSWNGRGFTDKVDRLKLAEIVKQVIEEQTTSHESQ

[8] = molecular target: RPS6KA3 KD1 KD2 (human) (UniProt P51812)
[9] = molecular target: CSNK1G3 (human) (UniProt Q9Y6M4)
Sequence of CSNK1G3 (human) (Q9Y6M4 whole entry, looked up): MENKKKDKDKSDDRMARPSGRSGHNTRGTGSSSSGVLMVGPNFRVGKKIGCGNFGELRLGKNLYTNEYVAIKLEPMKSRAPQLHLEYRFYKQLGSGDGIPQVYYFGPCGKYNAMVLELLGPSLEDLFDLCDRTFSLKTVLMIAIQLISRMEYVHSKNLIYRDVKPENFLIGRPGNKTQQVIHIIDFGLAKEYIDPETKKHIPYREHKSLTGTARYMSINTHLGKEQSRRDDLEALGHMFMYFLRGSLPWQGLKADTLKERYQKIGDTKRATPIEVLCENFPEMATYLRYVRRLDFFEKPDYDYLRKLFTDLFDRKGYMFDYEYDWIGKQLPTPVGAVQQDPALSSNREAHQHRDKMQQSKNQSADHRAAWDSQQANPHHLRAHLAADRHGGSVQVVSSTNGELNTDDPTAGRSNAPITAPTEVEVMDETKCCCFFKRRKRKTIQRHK

[10] = molecular target: SGK1 (human) (UniProt O00141)
Sequence of SGK1 (human) (O00141 whole entry, looked up): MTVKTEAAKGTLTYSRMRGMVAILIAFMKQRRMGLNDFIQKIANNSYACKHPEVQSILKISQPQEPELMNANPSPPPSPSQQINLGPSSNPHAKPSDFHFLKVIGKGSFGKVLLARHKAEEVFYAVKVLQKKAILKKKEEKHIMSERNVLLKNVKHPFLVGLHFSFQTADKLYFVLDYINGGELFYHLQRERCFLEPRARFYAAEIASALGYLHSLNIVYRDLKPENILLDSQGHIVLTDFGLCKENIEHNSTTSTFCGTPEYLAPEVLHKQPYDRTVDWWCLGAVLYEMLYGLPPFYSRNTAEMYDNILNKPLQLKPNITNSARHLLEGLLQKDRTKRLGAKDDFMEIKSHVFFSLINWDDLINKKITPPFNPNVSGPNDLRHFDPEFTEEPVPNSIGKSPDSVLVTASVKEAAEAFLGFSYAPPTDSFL

[11] = molecular target: GSK3A (human) (UniProt P49840)
[12] = molecular target: DAPK3 (human) (UniProt O43293)
[13] = molecular target: MKNK2 (human) (UniProt Q9HBH9)
Sequence of MKNK2 (human) (Q9HBH9 whole entry, looked up): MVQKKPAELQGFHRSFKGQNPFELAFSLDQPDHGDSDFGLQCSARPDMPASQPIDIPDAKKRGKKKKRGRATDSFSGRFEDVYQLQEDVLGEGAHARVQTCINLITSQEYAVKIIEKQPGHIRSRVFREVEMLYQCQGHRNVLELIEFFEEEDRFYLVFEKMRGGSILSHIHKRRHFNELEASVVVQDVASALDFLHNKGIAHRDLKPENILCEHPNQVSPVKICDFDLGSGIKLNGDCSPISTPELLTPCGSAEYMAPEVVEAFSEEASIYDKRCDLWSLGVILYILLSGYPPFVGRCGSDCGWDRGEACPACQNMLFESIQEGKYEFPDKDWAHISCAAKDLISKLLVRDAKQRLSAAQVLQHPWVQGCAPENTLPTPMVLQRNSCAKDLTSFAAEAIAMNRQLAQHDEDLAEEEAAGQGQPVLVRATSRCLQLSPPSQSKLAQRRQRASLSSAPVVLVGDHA

[14] = molecular target: PRKD3 (human) (UniProt O94806)
[15] = molecular target: PLK1 (human) (UniProt P53350)
[16] = molecular target: PBK (human) (UniProt Q96KB5)
Sequence of PBK (human) (Q96KB5 whole entry, looked up): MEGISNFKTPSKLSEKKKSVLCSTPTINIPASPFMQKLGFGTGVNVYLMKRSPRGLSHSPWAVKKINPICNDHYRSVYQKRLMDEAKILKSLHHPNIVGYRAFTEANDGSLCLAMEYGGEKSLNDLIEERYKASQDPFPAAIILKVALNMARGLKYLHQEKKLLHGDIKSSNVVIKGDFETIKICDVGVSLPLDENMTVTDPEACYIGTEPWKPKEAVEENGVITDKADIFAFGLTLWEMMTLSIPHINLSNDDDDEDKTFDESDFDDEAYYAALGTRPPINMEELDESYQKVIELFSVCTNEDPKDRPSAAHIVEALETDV

[17] = molecular target: MAP4K4 (human) (UniProt O95819)
Sequence of MAP4K4 (human) (O95819 whole entry, looked up): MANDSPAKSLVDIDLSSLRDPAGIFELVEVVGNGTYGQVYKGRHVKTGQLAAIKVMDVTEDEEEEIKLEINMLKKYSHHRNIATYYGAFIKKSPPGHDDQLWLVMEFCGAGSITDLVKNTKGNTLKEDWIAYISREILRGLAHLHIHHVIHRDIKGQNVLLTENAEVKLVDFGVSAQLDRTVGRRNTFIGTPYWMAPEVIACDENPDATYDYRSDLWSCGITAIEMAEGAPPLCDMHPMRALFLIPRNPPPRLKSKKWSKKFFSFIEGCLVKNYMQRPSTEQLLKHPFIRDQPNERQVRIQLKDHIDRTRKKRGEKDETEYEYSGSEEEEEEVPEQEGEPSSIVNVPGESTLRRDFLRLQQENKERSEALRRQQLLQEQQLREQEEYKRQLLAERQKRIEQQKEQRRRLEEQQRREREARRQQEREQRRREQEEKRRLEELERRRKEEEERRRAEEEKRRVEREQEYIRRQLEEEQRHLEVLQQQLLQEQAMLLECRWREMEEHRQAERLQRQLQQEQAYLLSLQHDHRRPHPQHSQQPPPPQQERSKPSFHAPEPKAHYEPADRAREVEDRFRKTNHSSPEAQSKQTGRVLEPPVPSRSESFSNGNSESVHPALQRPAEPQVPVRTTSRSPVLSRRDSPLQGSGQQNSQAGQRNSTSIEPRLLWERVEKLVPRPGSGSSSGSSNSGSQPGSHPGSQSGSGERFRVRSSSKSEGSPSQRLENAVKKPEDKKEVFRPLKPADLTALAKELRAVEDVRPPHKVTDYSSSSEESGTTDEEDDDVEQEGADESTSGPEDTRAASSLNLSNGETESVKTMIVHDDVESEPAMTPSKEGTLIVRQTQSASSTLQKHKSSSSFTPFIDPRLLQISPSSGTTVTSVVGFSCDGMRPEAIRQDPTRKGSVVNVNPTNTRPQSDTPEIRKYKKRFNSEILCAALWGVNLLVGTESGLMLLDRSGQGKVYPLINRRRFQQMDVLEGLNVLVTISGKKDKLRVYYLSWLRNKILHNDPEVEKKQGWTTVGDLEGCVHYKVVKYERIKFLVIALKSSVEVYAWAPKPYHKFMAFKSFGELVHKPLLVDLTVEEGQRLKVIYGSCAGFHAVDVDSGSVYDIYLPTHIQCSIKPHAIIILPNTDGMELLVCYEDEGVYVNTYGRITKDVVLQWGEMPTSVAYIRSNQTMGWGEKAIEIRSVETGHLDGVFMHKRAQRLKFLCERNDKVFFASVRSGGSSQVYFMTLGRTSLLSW

[18] = molecular target: MELK (human) (UniProt Q14680)
[19] = molecular target: CSNK1G1 (human) (UniProt Q9HCP0)
[20] = molecular target: CSNK1A1 (human) (UniProt P48729)
Sequence of CSNK1A1 (human) (P48729 whole entry, looked up): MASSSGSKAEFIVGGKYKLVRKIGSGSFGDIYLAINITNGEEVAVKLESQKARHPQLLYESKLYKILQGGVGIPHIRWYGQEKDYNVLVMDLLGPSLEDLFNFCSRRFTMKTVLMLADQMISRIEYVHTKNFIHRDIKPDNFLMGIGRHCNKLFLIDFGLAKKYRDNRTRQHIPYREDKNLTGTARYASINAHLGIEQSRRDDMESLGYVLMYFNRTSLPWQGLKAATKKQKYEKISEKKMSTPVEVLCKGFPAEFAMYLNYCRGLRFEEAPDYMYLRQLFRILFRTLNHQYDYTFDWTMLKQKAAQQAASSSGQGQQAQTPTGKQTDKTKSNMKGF

[21] = molecular target: PRKG2 (human) (UniProt Q13237)
[22] = molecular target: PKN2 (human) (UniProt Q16513)
[23] = molecular target: PRKX (human) (UniProt P51817)
Sequence of PRKX (human) (P51817 whole entry, looked up): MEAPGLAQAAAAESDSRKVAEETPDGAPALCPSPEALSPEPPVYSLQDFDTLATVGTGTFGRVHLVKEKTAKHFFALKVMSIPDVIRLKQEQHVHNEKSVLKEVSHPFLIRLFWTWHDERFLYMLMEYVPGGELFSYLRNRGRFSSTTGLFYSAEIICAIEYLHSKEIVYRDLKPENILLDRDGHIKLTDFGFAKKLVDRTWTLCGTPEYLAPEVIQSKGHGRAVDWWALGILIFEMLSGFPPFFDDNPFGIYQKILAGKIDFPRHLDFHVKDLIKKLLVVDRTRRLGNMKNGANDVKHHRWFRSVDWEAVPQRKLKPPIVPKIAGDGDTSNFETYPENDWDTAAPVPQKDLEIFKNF

[24] = molecular target: CSNK1G2 (human) (UniProt P78368)
Sequence of CSNK1G2 (human) (P78368 whole entry, looked up): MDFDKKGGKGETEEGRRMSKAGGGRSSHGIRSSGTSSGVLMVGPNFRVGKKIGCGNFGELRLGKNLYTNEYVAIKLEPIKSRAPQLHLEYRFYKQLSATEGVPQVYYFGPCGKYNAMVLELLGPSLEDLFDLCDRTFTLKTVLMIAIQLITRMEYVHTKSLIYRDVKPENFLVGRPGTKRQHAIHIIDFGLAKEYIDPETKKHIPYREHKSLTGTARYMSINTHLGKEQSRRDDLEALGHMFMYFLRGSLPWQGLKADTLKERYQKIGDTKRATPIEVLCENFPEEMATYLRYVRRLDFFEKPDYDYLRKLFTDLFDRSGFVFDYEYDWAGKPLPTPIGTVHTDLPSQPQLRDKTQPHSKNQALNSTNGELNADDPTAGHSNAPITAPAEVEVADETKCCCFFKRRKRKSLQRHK

[25] = molecular target: RPS6KB1 (human) (UniProt P23443)

Sequence of CHEK1 (human) (O14757 whole entry, looked up): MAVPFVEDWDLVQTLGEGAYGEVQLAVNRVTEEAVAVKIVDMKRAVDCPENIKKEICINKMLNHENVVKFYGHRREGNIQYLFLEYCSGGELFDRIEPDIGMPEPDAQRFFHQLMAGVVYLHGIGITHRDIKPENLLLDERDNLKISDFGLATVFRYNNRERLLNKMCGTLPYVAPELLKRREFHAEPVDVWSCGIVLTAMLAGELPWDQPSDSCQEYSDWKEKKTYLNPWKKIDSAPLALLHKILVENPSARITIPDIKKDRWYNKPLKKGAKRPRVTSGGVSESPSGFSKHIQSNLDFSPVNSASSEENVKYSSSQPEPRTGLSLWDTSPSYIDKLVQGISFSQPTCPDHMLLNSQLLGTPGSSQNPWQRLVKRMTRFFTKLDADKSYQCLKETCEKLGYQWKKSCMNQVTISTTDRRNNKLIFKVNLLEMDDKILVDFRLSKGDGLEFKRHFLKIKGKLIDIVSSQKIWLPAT

Ki [1]: 1260 nM
Ki [2]: 63.1 nM
Ki [3]: > 10000 nM
Ki [4]: > 10000 nM
Ki [5]: > 1580 nM
Ki [6]: > 10000 nM
Ki [7]: > 1580 nM
Ki [8]: 398 nM
Ki [9]: 1000 nM
Ki [10]: 251 nM
Ki [11]: 1260 nM
Ki [12]: 398 nM
Ki [13]: 316 nM
Ki [14]: 100 nM
Ki [15]: > 7940 nM
Ki [16]: 1000 nM
Ki [17]: 316 nM
Ki [18]: 398 nM
Ki [19]: > 6310 nM
Ki [20]: 316 nM
Ki [21]: > 1580 nM
Ki [22]: > 7940 nM
Ki [23]: > 1580 nM
Ki [24]: 2000 nM
Ki [25]: 126 nM
SMILES: O=C1c2ccccc2-c2n[nH]c3cccc1c23
